Results: patent US20260226049A1, “NITROGEN-CONTAINING HETEROCYCLIC COMPOUND, PREPARATION METHOD THEREFOR, AND USE THEREOF” (BIVISION PHARMACEUTICALS, INC, priority 2023, published 2026)
pKd: −log10 of the molar value.

Legend:
[1] = molecular target: T1, FAP protein (Homo sapiens, UniProt Q12884); test: Biacore test of ligand binding to FAP protein; settings: FAP protein on SA chip, 15° C., 1:1 binding model
T1 construct: purchased Sinobiological
T1 sequence (Q12884 1-760): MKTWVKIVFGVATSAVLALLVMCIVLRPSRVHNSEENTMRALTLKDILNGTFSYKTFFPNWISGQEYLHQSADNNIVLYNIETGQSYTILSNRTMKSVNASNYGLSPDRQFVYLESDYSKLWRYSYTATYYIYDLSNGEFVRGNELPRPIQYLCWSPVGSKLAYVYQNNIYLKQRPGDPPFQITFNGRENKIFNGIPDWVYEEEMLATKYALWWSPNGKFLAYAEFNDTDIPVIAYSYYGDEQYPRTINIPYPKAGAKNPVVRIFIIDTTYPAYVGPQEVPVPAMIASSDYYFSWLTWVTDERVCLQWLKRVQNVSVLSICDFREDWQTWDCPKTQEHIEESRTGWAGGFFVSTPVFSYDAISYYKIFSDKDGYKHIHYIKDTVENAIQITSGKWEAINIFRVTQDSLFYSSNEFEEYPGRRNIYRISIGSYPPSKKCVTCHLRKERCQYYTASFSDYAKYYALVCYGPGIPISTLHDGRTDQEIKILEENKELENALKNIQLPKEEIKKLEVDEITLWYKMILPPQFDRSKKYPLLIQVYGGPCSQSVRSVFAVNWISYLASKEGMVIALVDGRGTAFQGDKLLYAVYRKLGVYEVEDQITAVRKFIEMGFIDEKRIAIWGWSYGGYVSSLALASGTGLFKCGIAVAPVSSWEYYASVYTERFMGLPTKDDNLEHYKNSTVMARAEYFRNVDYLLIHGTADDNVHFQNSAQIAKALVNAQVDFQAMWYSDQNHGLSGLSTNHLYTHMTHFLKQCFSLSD
Description: The Biacore 8K (Cytiva) instrument was used to detect ligand binding of the FAP protein (Sinobiological). The FAP protein was captured on the SA chip. Before ligand immobilization (flow paths 1 and 2, flow rate of 10 μL/min), the FAP protein (10 μg/mL, flow rate of 5 μL/min, injection time of 600 s) was immobilized on flow path 2 using running buffer, and the sensor surface was conditioned with three consecutive injections of 1 M NaCl in 50 mM NaOH. After each ligand injection, additional washing was carried out with isopropanol in 1 M NaCl and 50 mM NaOH (flow paths 1 and 2, flow rate of 10 μL/min, injection time of 60 s).
The test compounds were dissolved in 100% dimethyl sulfoxide and diluted to 10 mM, then further diluted in the assay buffer (PBS, pH 7.4, 1 mM TCEP ([…]), 0.05% P20, 2% dimethyl sulfoxide) to appropriate maximum concentrations. The analyte was run under the following conditions: analysis temperature=15° C., analysis step=all set to LMW kinetics; cycle type=single cycle (90 s contact time, 1800 s dissociation time, 30 μL/min flow rate, flow channels 1, 2); flow channel detection=2-1). Data evaluation was performed using Biacore Insight Evaluation Software, and the data were fitted to a 1:1 binding model.
The Biacore results are shown in Table 1: pKD=−Log KD, where KD is the binding affinity of the compound to the FAP protein as measured by Biacore. The binding affinity is expressed by KD (M)=Kd(1/s)/Ka(1/Ms). Where A: pKD>8, B: 7<pKD<8, C: 6<pKD<7, D: pKD<6.

[2] = tested on: HT1080 cell line with high FAP expression; test: Therapeutic experiment of ^177Lu-labeled compounds in tumor-bearing mice; format: in vivo, Balb/c Nude mice; settings: for therapeutic effects in mouse tumor model: ^177Lu-labeled compound; for T/C / Tumor volume (mm^3) Group administration Day 14 / TGI^TV (%): 0.8 mCi; for T/C / Tumor volume (mm^3) Group administration Day 14: Day 14; for TGI^TV (%): Day 14, relative tumor inhibition rate; for Tumor volume (mm^3) Before administration: baseline, 0.8 mCi group
Description: Balb/c Nude tumor-bearing mice (supplier: Shanghai Alamo Pharmaceutical Technology Co., Ltd., HT1080 cell line with high FAP expression) aged approximately 6-8 weeks were randomly assigned to 13 experimental groups based on tumor volume, with 5 mice per group. Animal body weight and tumor size were measured, and administration was initiated on the grouping day starting with Group 1 (control group: normal saline). General health and appearance were observed daily after the start of the experiment. Animal body weight and tumor size were measured before each sample collection time point. Any abnormal observations detected during the entire study period were required to be recorded in the raw data.
The synthesized compounds were labeled with ^177Lu and subsequently utilized in the therapeutic assay on mouse tumor models. […] Furthermore, no significant changes in mouse body weight (FIG. 8) were observed throughout the experimental period.
• TGI^TV: Relative tumor inhibition rate (TGI^TV): TGI^TV (%)=[1−(Ti−T0)/(Vi−V0)]×100%; • (Ti: average tumor volume of the treatment group on day i of administration, TO: average tumor volume of the treatment group on day 0 of administration; Vi: average tumor volume of the solvent control group on day i of administration, V0: average tumor volume of the solvent control group on day 0 of administration) • T/C: T/C % is one of the most commonly used indicators for tumor response to treatment: T/C %=T/C*100%; • (T represents the average tumor volume of the treatment group at a specific time point; C represents the average tumor volume of the control group at a specific time point.)
The differences between the treatment groups (tumor volumes of the second, third, fourth, and fifth groups) and the control group (tumor volume of the first group) and between the tumor volumes of the first, third, fourth, and fifth groups and the tumor volume of the second group were analyzed using the two-way ANOVA Fisher's LSD test method. P-values less than 0.05 were considered statistically significant. Both statistical significance and biological significance were taken into account during the result analysis.

N#C[C@@H]1CC(F)(F)CN1C(=O)CNC(=O)c1ccc2c(n1)CCN(C(=O)CCC(=O)NCCNC(=O)CCC(C(=O)O)N1CCN(CC(=O)O)CCN(CC(=O)O)CCN(CC(=O)O)CC1)C2 (some centres unmarked) [JHH2]
pKd [1]: 7.00 to 8.00

N#C[C@@H]1CC(F)(F)CC1C(=O)CNC(=O)c1ccc2c(c1)CCN(C(=O)CCC(=O)NCCNC(=O)CCC(C(=O)O)N1CCN(CC(=O)O)CCN(CC(=O)O)CCN(CC(=O)O)CC1)C2 (some centres unmarked) [JHH6]
pKd [1]: 6.00 to 7.00

C[C@@H](NC(=O)c1cnc2c(c1)CCN(C(=O)CCC(=O)NCCNC(=O)CCC(C(=O)O)N1CCN(CC(=O)O)CCN(CC(=O)O)CCN(CC(=O)O)CC1)C2)C(=O)N1CC(F)(F)C[C@H]1C#N (stereo partly drawn) [JHM1, 2,2′,2″-(10-(1-carboxy-4-((2-(4-(3-(((R)-1-((S)-2-cyano-4,4-difluoropyrrolidin-1-yl)-1-oxopropan-2-yl)carbamoyl)-5,8-dihydro-1,7-naphthyridin-7 (6H)-yl)-4-oxobutanamido)ethyl)amino)-4-oxobutyl)-1,4,7,10-tetraazacyclododecane-1,4,7-triyl)triacetic acid]
pKd [1]: 6.00 to 7.00

N#C[C@@H]1CC(F)(F)CN1C(=O)CNC(=O)c1cnc2c(c1)CCN(C(=O)CCC(=O)NCCNC(=O)CCC(C(=O)O)N1CCN(CC(=O)O)CCN(CC(=O)O)CCN(CC(=O)O)CC1)C2 (stereo partly drawn) [JHH1, 2,2′,2″-(10-(1-carboxy-4-((2-(4-(3-((2-((S)-2-cyano-4,4-difluoropyrrolidin-1-yl)-2-oxoethyl)carbamoyl)-5,8-dihydro-1,7-naphthyridin-7 (6H)-yl)-4-oxobutanamido)ethyl)amino)-4-oxobutyl)-1,4,7,10-tetraazacyclododecane-1,4,7-triyl)triacetic acid]
pKd [1]: 7.00 to 8.00 | therapeutic effects in mouse tumor model [2]: dose-dependent therapeutic effects

N#C[C@@H]1CC(F)(F)CN1C(=O)CNC(=O)c1ccc2c(c1)CCCN2C(=O)CCC(=O)NCCNC(=O)CCNC(=O)CN1CCN(CC(=O)O)CCN(CC(=O)O)CCN(CC(=O)O)CC1 [JHH13]
pKd [1]: 7.00 to 8.00

C[C@@H](NC(=O)c1ccc(CNC(=O)CCC(=O)NCCCC[C@H](NC(=O)CCC(=O)NCc2ccc(C(=O)N[C@H](C)C(=O)N3CCC[C@H]3B(O)O)cc2)C(=O)NCCOCCNC(=O)CN2CCN(CC(=O)O)CCN(CC(=O)O)CCN(CC(=O)O)CC2)cc1)C(=O)N1CCC[C@H]1B(O)O [JHDB2]
pKd [1]: 6.00 to 7.00

O=C(O)CN1CCN(CC(=O)O)CCN(CC(=O)NCc2ccc(C(=O)N[C@H](CO)C(=O)N3CCC[C@H]3B(O)O)cc2)CCN(CC(=O)O)CC1 [JHB1]
pKd [1]: 7.00 to 8.00

N#C[C@@H]1CC(F)(F)CN1C(=O)CNC(=O)c1cc2c(s1)CCN(C(=O)CCC(=O)NCCNC(=O)CCC(C(=O)O)N1CCN(CC(=O)O)CCN(CC(=O)O)CCN(CC(=O)O)CC1)C2 (some centres unmarked) [JHH3]
pKd [1]: > 8.00

N#C[C@@H]1CC(F)(F)CN1C(=O)CNC(=O)c1cccc(C2CCN(C(=O)CCC(=O)NCC(=O)N3CN(C(=O)CNC(=O)CCC(=O)N4CCC(c5cccc(C(=O)NCC(=O)N6CC(F)(F)C[C@H]6C#N)c5)CC4)CN(C(=O)CNC(=O)CN4CCN(CC(=O)O)CCN(CC(=O)O)CCN(CC(=O)O)CC4)C3)CC2)c1 [JHDB7]
pKd [1]: 7.00 to 8.00

N#C[C@@H]1CC(F)(F)CN1C(=O)CNC(=O)c1ccc2c(c1)CCN(C(=O)CCC(=O)NCCNC(=O)CCNC(=O)CN1CCN(CC(=O)O)CCN(CC(=O)O)CCN(CC(=O)O)CC1)C2 [JHH12]
pKd [1]: > 8.00

N#C[C@@H]1CC(F)(F)CN1C(=O)CNC(=O)c1cccc(C2CCN(C(=O)CCC(=O)NCCNC(=O)CCC(C(=O)O)N3CCN(CC(=O)O)CCN(CC(=O)O)CCN(CC(=O)O)CC3)CC2)c1 (some centres unmarked) [JHH9]
pKd [1]: > 8.00 | therapeutic effects in mouse tumor model [2]: dose-dependent therapeutic effects

N#C[C@@H]1CC(F)(F)CN1C(=O)CNC(=O)c1cc2c(s1)CCN(C(=O)CCC(=O)NCCNC(=O)CCNC(=O)CN1CCN(CC(=O)O)CCN(CC(=O)O)CCN(CC(=O)O)CC1)C2 [JHH11]
pKd [1]: > 8.00

N#C[C@@H]1CC(F)(F)CN1C(=O)CNC(=O)c1cccc2c1CCCC2C(=O)CCC(=O)NCCNC(=O)CCNC(=O)CN1CCN(CC(=O)O)CCN(CC(=O)O)CCN(CC(=O)O)CC1 (some centres unmarked) [JHH14]
therapeutic effects in mouse tumor model [2]: dose-dependent therapeutic effects

N#C[C@@H]1CC(F)(F)CN1C(=O)CNC(=O)c1cccc2c1CCCC2C(=O)CCC(=O)NCCNC(=O)CCNC(=O)CN1CCN(CC(=O)O)CCN(CC(=O)O)CCN(CC(=O)O)CC1.[177Lu] (some centres unmarked) [^177Lu-JHH14]
T/C [2]: 28.93% | Tumor volume (mm^3) Group administration Day 14 [2]: 755.85 ± 58.74 mm^3 | TGI^TV (%) [2]: 74.39% | Tumor volume (mm^3) Before administration [2]: 153.87 ± 16.47 mm^3

N#C[C@@H]1CC(F)(F)CN1C(=O)CNC(=O)c1cccc(C2CCN(C(=O)CCC(=O)NCCNC(=O)CCC(C(=O)O)N3CCN(CC(=O)O)CCN(CC(=O)O)CCN(CC(=O)O)CC3)CC2)c1.[177Lu] (some centres unmarked) [^177Lu-JHH9]
T/C [2]: 30.65% | Tumor volume (mm^3) Group administration Day 14 [2]: 800.87 ± 42.08 mm^3 | TGI^TV (%) [2]: 72.54% | Tumor volume (mm^3) Before administration [2]: 155.24 ± 14.81 mm^3

N#C[C@@H]1CC(F)(F)CN1C(=O)CNC(=O)c1ccc2c(c1)CCN(C(=O)CCC(=O)NCC(=O)N1CN(C(=O)CNC(=O)CCC(=O)N3CCc4cc(C(=O)NCC(=O)N5CC(F)(F)C[C@H]5C#N)ccc4C3)CN(C(=O)CNC(=O)CN3CCN(CC(=O)O)CCN(CC(=O)O)CCN(CC(=O)O)CC3)C1)C2 [JHDB6]
pKd [1]: > 8.00

C[C@@H]1CC(F)(F)CN1C(=O)CNC(=O)c1ccc2c(c1)CN(C(=O)CCC(=O)NCCNC(=O)CCC(C(=O)O)N1CCN(CC(=O)O)CCN(CC(=O)O)CCN(CC(=O)O)CC1)C2 (some centres unmarked) [JHH7]
pKd [1]: > 8.00

N#C[C@@H]1CC(F)(F)CN1C(=O)CNC(=O)c1cccc2c1CCN(C(=O)CCC(=O)NCCNC(=O)CCC(C(=O)O)N1CCN(CC(=O)O)CCN(CC(=O)O)CCN(CC(=O)O)CC1)C2 (some centres unmarked) [^177Lu-JHH5, metal not drawn]
T/C [2]: 20.89% | Tumor volume (mm^3) Group administration Day 14 [2]: 545.74 ± 94.21 mm^3 | TGI^TV (%) [2]: 83.08% | Tumor volume (mm^3) Before administration [2]: 148.04 ± 9.78 mm^3
